From patent US20040138301A1, “Chemical uncouplers for the treatment of obesity” (priority 2002, published 2004)
pEC50: −log10 of the molar value.

Legend:
[1] = test system: HEP-G2 cells; experiment: cells; settings: for pEC50 / Emax / EC (Emax): Homo sapiens; for pEC50: HepG2, 3 h, read-out: HEP-G2 EC50, HEP-G2 cells, glucose utilisation, 3 hours incubation; for Emax: HepG2, read-out: HEP-G2 Emax (% of FCCP), HEP-G2 cells, maximal stimulation relative to FCCP; for EC (Emax): HepG2, read-out: HEP-G2 Emax (μM), HEP-G2 cells, concentration at which Emax is achieved (CEmax)
In short: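 HEP-G2 cells were treated with compound for 3 h at 37 °C in MEM/0.5% BSA containing 10 μCi/ml D-(3-^3H(N))-glucose, then lysed with TCA; ^3H-water released via the respiratory chain was recovered by evaporation at 50 °C and counted. Values are corrected for non-specific and basal counts, expressed as % of maximal FCCP or DNP stimulation, and EC50 is from a variable-slope sigmoidal fit.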

[2] = test system: isolated mitochondria; experiment: Assay (II): effect of chemical uncouplers on mitochondrial respiration using isolated mitochondria (oxygen consumption); format: biochemical
Description: Assay (II)—The Effect of Chemical Uncouplers on Mitochondrial Respiration Using Isolated Mitochondria.
This assay is used to investigate if the increase in glucose utilisation caused by the test compounds observed in the glucose utilisation assay is due to an increase in the respiration of the mitochondria. This is done by measuring oxygen consumption in isolated mitochondria.
A Clark oxygen electrode is used to determine the oxygen consumption. The isolated mitochondria are added to medium containing oxygen and nutrients (e.g. Succinate) and the rate of oxygen consumptions is measured, when stabilized a small amount of ADP is added to increase the respiration and an increase in the rate of oxygen consumption is measured. When the rate of oxygen consumption again has stabilized the test compound is added and a further increase in oxygen consumption is seen. This experiment is done with and without the addition of oligomycin which is an inhibitor of the ATP-synthase. Finally, the test compound is examined without adding ADP. If the test compound stimulates the rate of oxygen consumption in all setups, it is regarded as a chemical uncoupler.

pEC50 [1] | Structure (SMILES) | Emax [1] [%] | EC (Emax) [1] [µM] | Mito State-4 [2] | HEP-G2 Tox ([1]; human, 3 h)
4.71 | N#CC(C#N)=Cc1c[nH]c2ccc(Cl)cc12 [Example 30, 2-((5-Chloro-1H-Indol-3-Yl)Methylene)Malononitrile] | 60 | 100 | Ok | –
5.85 | N#CC(C#N)=Cc1c(Cl)[nH]c2ccccc12 [Example 34, 2-(2-Chloro-1H-Indol-3-Ylmethylene)-Malononitrile] | 80 | 10 | Ok | –
7.46 | Cc1c(Br)cc(C(C)(C)C)c(O)c1C(=O)Nc1ccc([N+](=O)[O-])cc1Cl [Example 37, 3-Bromo-5-Tert-Butyl-N-(2-Chloro-4-Nitro-Phenyl)-6-Hydroxy-2-Methyl-Benzamide] | 100 | 1 | Ok | –
7.52 | Cc1c(Cl)cc(C(C)(C)C)c(O)c1C(=O)Nc1ccc([N+](=O)[O-])cc1C(F)(F)F [Example 50, 3-Tert-Butyl-5-Chloro-2-Hydroxy-6-Methyl-N-(4-Nitro-2-Trifluoromethyl-Phenyl)-Benzamide] | 82 | 0.1 | Ok | –
5.18 | Cc1cc(C(C#N)c2ccc(Cl)cc2)c(Cl)cc1NC(=O)c1c(C)c(Br)cc(C(C)(C)C)c1O (stereo not shown) [Example 56, 3-Bromo-5-Tert-Butyl-N-{5-Chloro-4-[(4-Chloro-Phenyl)-Cyano-Methyl]-2-Methyl-Phenyl}-6-Hydroxy-2-Methyl-Benzamide] | 100 | 100 | Ok | –
7.52 | Cc1c(Br)cc(C(C)(C)C)c(O)c1C(=O)Nc1ccc([N+](=O)[O-])cc1C(F)(F)F [Example 58, 3-Bromo-5-Tert-Butyl-6-Hydroxy-2-Methyl-N-(4-Nitro-2-Trifluoromethyl-Phenyl)-Benzamide] | 100 | 0.1 | Ok | –
6.44 | CC(=C(C#N)C#N)c1cc(C(C)(C)C)c(O)c(C(C)(C)C)c1 [Example 75, 2-[1-(3,5-Di-Tert-Butyl-4-Hydroxy-Phenyl)-Ethylidene]-Malononitrile] | 120 | 30 | Ok | Tox 0.3 mM
6.51 | CC(C)(C)c1cc(/C=C(\C#N)c2ccc([N+](=O)[O-])cc2)cc(C(C)(C)C)c1O [Example 77, 3-(3,5-Di-Tert-Butyl-4-Hydroxy-Phenyl)-2-(4-Nitro-Phenyl)-Acrylonitrile] | 100 | 3 | Ok | –

Structure (SMILES) | pEC50 [1] | Emax [1] [%] | EC (Emax) [1] [µM] | Mito State-4 [2] | HEP-G2 Tox ([1]; human, 3 h)
N#CC(C#N)=NNc1ccc(OC(F)(F)F)cc1 [Example 27, Carbonylcyanide p-Trifluoromethoxy-Phenylhydrazone, reference compound] | 5.52 | 100 | 30 | Ok | –
